Assay results from the NIST ThermoML archive (doi:10.1016/j.jct.2016.05.015).

Assay: xn = mol fraction of the nth substance listed
Conditions: 100 kPa, Liquid; for viscosity: Capillary tube (Ostwald / Ubbelohde) method; for speed of sound: Frequency=2 MHz, Linear variable-path acoustic interferometer; for mass density: Vibrating tube method

Nc1cccc(Cl)c1 [3-chlorobenzenamine] + Brc1ccccc1
Conditions	mass density [kg/m3]	speed of sound [m/s]	viscosity [mPa·s]
303.15 K, x1 = 0.0902	1457.14	1162.5	1.364
303.15 K, x1 = 0.1842	1431.71	1191.5	1.741
303.15 K, x1 = 0.2789	1406	1222.1	2.101
303.15 K, x1 = 0.3759	1379.47	1255.1	2.454
303.15 K, x1 = 0.4745	1352.34	1290.5	2.795
303.15 K, x1 = 0.5763	1324.09	1329.2	3.131
303.15 K, x1 = 0.6782	1295.62	1370.2	3.446
303.15 K, x1 = 0.7852	1265.62	1416	3.752
303.15 K, x1 = 0.8914	1235.79	1464.5	4.022
303.15 K, x1 = 1	1205.32	1517.5	4.255
308.15 K, x1 = 0.0902	1451.19	1148.3	1.307
308.15 K, x1 = 0.1842	1425.93	1177.1	1.65
308.15 K, x1 = 0.2789	1400.36	1207.4	1.976
308.15 K, x1 = 0.3759	1373.99	1240.2	2.291
308.15 K, x1 = 0.4745	1346.99	1275.4	2.593
308.15 K, x1 = 0.5763	1318.91	1313.8	2.888
308.15 K, x1 = 0.6782	1290.63	1354.7	3.166
308.15 K, x1 = 0.7852	1260.78	1400.3	3.427
308.15 K, x1 = 0.8914	1231.09	1448.6	3.657
308.15 K, x1 = 1	1200.75	1501.2	3.842
313.15 K, x1 = 0.0902	1444.19	1134.9	1.223
313.15 K, x1 = 0.1842	1419.21	1163	1.533
313.15 K, x1 = 0.2789	1393.88	1192.8	1.826
313.15 K, x1 = 0.3759	1367.75	1224.9	2.104
313.15 K, x1 = 0.4745	1340.99	1259.3	2.372
313.15 K, x1 = 0.5763	1313.18	1296.9	2.632
313.15 K, x1 = 0.6782	1285.16	1336.9	2.876
313.15 K, x1 = 0.7852	1255.6	1381.6	3.105
313.15 K, x1 = 0.8914	1226.16	1428.7	3.293
313.15 K, x1 = 1	1196.02	1480.3	3.43
318.15 K, x1 = 0.0902	1437.77	1124.6	1.155
318.15 K, x1 = 0.1842	1412.99	1152.3	1.437
318.15 K, x1 = 0.2789	1387.82	1181.7	1.692
318.15 K, x1 = 0.3759	1361.85	1213.3	1.934
318.15 K, x1 = 0.4745	1335.26	1247.3	2.165
318.15 K, x1 = 0.5763	1307.62	1284.5	2.388
318.15 K, x1 = 0.6782	1279.81	1324	2.595
318.15 K, x1 = 0.7852	1250.46	1368	2.786
318.15 K, x1 = 0.8914	1221.22	1414.5	2.934
318.15 K, x1 = 1	1191.25	1464.8	3.022

Nc1cccc(Cl)c1 [3-chlorobenzenamine] + Clc1ccccc1
Conditions	mass density [kg/m3]	speed of sound [m/s]	viscosity [mPa·s]
303.15 K, x1 = 0.0895	1106.11	1265.6	1.126
303.15 K, x1 = 0.1802	1116.69	1284.1	1.516
303.15 K, x1 = 0.2935	1129.74	1308.9	1.975
303.15 K, x1 = 0.3821	1139.77	1329.6	2.317
303.15 K, x1 = 0.4956	1152.34	1358.1	2.738
303.15 K, x1 = 0.5823	1161.75	1381.5	3.046
303.15 K, x1 = 0.6923	1173.48	1413.3	3.417
303.15 K, x1 = 0.8012	1184.88	1447.5	3.756
303.15 K, x1 = 0.8856	1193.58	1476	3.991
303.15 K, x1 = 1	1205.32	1517.5	4.255
308.15 K, x1 = 0.0895	1100.43	1243.5	1.059
308.15 K, x1 = 0.1802	1111.15	1262.3	1.418
308.15 K, x1 = 0.2935	1124.32	1287.4	1.835
308.15 K, x1 = 0.3821	1134.43	1308.4	2.145
308.15 K, x1 = 0.4956	1147.15	1337.4	2.522
308.15 K, x1 = 0.5823	1156.68	1361.3	2.797
308.15 K, x1 = 0.6923	1168.55	1393.9	3.126
308.15 K, x1 = 0.8012	1180.09	1429	3.421
308.15 K, x1 = 0.8856	1188.91	1458.3	3.623
308.15 K, x1 = 1	1200.75	1501.2	3.842
313.15 K, x1 = 0.0895	1095.5	1223.6	0.9961
313.15 K, x1 = 0.1802	1106.27	1242.2	1.322
313.15 K, x1 = 0.2935	1119.45	1267.1	1.697
313.15 K, x1 = 0.3821	1129.56	1288	1.972
313.15 K, x1 = 0.4956	1142.29	1316.8	2.306
313.15 K, x1 = 0.5823	1151.83	1340.5	2.548
313.15 K, x1 = 0.6923	1163.77	1373.1	2.839
313.15 K, x1 = 0.8012	1175.35	1408.2	3.097
313.15 K, x1 = 0.8856	1184.21	1437.5	3.264
313.15 K, x1 = 1	1196.02	1480.3	3.43
318.15 K, x1 = 0.0895	1090.31	1198.7	0.9397
318.15 K, x1 = 0.1802	1101.12	1217.7	1.238
318.15 K, x1 = 0.2935	1114.34	1243.1	1.57
318.15 K, x1 = 0.3821	1124.49	1264.5	1.808
318.15 K, x1 = 0.4956	1137.26	1294.2	2.098
318.15 K, x1 = 0.5823	1146.85	1318.8	2.308
318.15 K, x1 = 0.6923	1158.87	1352.6	2.557
318.15 K, x1 = 0.8012	1170.53	1389.2	2.773
318.15 K, x1 = 0.8856	1179.42	1419.9	2.908
318.15 K, x1 = 1	1191.25	1464.8	3.022

Nc1cccc(Cl)c1 [3-chlorobenzenamine] + O=[N+]([O-])c1ccccc1
Conditions	mass density [kg/m3]	speed of sound [m/s]	viscosity [mPa·s]
303.15 K, x1 = 0.0812	1194.97	1445	1.938
303.15 K, x1 = 0.1725	1196.57	1452.6	2.253
303.15 K, x1 = 0.2623	1198.01	1460	2.537
303.15 K, x1 = 0.3725	1199.59	1468.9	2.863
303.15 K, x1 = 0.4854	1201	1478	3.179
303.15 K, x1 = 0.5896	1202.12	1486.4	3.456
303.15 K, x1 = 0.6785	1202.96	1493.5	3.679
303.15 K, x1 = 0.7825	1203.81	1501.6	3.915
303.15 K, x1 = 0.8905	1204.59	1509.8	4.117
303.15 K, x1 = 1	1205.32	1517.5	4.255
308.15 K, x1 = 0.0812	1189.92	1427.2	1.787
308.15 K, x1 = 0.1725	1191.59	1435	2.079
308.15 K, x1 = 0.2623	1193.07	1442.5	2.34
308.15 K, x1 = 0.3725	1194.69	1451.6	2.637
308.15 K, x1 = 0.4854	1196.16	1460.9	2.922
308.15 K, x1 = 0.5896	1197.35	1469.4	3.168
308.15 K, x1 = 0.6785	1198.25	1476.7	3.362
308.15 K, x1 = 0.7825	1199.18	1485	3.565
308.15 K, x1 = 0.8905	1200.03	1493.4	3.734
308.15 K, x1 = 1	1200.75	1501.2	3.842
313.15 K, x1 = 0.0812	1185.37	1409.1	1.666
313.15 K, x1 = 0.1725	1187.04	1416.6	1.935
313.15 K, x1 = 0.2623	1188.49	1423.8	2.167
313.15 K, x1 = 0.3725	1190.08	1432.6	2.427
313.15 K, x1 = 0.4854	1191.52	1441.5	2.674
313.15 K, x1 = 0.5896	1192.7	1449.8	2.889
313.15 K, x1 = 0.6785	1193.61	1456.8	3.059
313.15 K, x1 = 0.7825	1194.55	1465	3.234
313.15 K, x1 = 0.8905	1195.37	1473	3.369
313.15 K, x1 = 1	1196.02	1480.3	3.43
318.15 K, x1 = 0.0812	1179.19	1392.1	1.542
318.15 K, x1 = 0.1725	1181	1399.7	1.787
318.15 K, x1 = 0.2623	1182.58	1407	1.992
318.15 K, x1 = 0.3725	1184.35	1415.8	2.218
318.15 K, x1 = 0.4854	1185.97	1424.9	2.43
318.15 K, x1 = 0.5896	1187.32	1433.4	2.615
318.15 K, x1 = 0.6785	1188.37	1440.7	2.755
318.15 K, x1 = 0.7825	1189.5	1449.1	2.902
318.15 K, x1 = 0.8905	1190.49	1457.3	3.004
318.15 K, x1 = 1	1191.25	1464.8	3.022
